Residues, ends and D or L forms follow the SMILES beside them.
How the values were obtained:
TMA7 = TMA7 (Homo sapiens, UniProt Q9Y2S6); assay: nHU-MS peptide bait, prey TMA7
UBE2N = molecular target: T1, UBE2N (Homo sapiens, UniProt P61088); assay: nHU-MS peptide bait, prey UBE2N
T1 sequence (P61088 1-152): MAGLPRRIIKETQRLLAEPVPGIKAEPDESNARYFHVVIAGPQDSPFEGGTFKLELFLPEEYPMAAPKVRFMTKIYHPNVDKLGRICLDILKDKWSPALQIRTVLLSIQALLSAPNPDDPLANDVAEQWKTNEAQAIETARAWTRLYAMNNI

GYPC = molecular target: T2, GYPC (Homo sapiens, UniProt P04921); assay: nHU-MS peptide bait, prey GYPC
T2 sequence (P04921 1-128): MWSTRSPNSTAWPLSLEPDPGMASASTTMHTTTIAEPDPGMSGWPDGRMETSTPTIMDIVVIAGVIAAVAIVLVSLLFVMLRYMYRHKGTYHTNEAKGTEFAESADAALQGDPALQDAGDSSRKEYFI

EHD4 = molecular target: T3, EHD4 (Homo sapiens, UniProt Q9H223); assay: nHU-MS peptide bait, prey EHD4
T3 sequence (Q9H223 1-541): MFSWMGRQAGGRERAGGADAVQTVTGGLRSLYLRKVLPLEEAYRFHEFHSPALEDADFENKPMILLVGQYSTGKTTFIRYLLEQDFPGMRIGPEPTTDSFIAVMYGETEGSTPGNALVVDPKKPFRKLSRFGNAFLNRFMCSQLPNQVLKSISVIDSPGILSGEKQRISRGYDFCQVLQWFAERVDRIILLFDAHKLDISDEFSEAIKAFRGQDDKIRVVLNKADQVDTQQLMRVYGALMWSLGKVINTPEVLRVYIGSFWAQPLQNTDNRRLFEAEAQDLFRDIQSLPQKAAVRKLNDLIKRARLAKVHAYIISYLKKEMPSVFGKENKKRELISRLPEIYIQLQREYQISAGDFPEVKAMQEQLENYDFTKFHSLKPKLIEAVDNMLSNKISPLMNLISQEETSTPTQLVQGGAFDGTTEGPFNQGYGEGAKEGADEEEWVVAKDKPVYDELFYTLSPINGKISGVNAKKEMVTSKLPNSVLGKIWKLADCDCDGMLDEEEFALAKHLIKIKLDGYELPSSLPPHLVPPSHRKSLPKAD

GNB4 = GNB4 (Homo sapiens, UniProt Q9HAV0); assay: nHU-MS peptide bait, prey GNB4
TXNL4B = molecular target: T4, TXNL4B (Homo sapiens, UniProt Q9NX01); assay: nHU-MS peptide bait, prey TXNL4B
T4 sequence (Q9NX01 1-149): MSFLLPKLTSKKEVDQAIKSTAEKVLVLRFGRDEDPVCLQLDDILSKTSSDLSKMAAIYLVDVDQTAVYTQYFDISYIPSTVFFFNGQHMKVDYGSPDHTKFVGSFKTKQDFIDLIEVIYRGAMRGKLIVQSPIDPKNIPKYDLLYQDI

ASXL2 = molecular target: T5, ASXL2 (Homo sapiens, UniProt Q76L83); assay: nHU-MS peptide bait, prey ASXL2
T5 sequence (Q76L83 1-1435): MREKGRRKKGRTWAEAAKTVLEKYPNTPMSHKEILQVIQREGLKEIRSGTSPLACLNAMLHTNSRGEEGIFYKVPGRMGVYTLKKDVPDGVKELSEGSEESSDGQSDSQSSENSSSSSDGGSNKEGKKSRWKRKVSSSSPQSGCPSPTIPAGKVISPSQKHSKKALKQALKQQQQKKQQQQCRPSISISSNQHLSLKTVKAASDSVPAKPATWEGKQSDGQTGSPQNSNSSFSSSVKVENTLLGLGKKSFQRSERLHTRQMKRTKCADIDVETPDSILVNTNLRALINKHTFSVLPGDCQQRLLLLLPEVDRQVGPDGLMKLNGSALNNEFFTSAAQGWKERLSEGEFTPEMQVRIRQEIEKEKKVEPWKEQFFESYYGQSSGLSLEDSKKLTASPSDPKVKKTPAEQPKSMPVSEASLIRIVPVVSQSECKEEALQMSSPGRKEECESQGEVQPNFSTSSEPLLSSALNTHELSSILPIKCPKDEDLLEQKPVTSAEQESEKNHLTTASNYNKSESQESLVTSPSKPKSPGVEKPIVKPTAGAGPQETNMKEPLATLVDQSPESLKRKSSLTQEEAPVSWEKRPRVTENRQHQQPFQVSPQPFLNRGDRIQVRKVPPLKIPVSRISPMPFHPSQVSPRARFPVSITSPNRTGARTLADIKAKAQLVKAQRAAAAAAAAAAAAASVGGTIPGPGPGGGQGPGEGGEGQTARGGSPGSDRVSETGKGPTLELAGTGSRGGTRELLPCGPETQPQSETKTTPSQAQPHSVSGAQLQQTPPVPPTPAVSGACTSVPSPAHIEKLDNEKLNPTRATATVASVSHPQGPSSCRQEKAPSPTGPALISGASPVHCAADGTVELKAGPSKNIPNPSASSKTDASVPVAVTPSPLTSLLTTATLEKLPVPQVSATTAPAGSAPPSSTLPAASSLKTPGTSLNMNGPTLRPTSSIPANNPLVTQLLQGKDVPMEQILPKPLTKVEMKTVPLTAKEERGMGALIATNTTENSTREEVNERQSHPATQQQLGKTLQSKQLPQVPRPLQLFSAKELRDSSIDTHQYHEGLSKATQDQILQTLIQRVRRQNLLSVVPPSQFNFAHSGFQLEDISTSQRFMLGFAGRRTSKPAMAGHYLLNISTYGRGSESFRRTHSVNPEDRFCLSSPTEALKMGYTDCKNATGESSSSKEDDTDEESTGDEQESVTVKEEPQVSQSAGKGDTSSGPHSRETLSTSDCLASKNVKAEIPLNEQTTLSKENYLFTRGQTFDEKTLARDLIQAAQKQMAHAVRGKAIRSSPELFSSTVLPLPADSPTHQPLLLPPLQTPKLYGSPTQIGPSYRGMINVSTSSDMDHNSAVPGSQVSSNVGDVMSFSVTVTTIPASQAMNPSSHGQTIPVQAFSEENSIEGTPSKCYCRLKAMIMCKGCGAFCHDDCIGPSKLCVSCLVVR

TXNRD3 = molecular target: T6, TXNRD3 (Homo sapiens, UniProt Q86VQ6); assay: nHU-MS peptide bait, prey TXNRD3
T6 sequence (Q86VQ6 1-643): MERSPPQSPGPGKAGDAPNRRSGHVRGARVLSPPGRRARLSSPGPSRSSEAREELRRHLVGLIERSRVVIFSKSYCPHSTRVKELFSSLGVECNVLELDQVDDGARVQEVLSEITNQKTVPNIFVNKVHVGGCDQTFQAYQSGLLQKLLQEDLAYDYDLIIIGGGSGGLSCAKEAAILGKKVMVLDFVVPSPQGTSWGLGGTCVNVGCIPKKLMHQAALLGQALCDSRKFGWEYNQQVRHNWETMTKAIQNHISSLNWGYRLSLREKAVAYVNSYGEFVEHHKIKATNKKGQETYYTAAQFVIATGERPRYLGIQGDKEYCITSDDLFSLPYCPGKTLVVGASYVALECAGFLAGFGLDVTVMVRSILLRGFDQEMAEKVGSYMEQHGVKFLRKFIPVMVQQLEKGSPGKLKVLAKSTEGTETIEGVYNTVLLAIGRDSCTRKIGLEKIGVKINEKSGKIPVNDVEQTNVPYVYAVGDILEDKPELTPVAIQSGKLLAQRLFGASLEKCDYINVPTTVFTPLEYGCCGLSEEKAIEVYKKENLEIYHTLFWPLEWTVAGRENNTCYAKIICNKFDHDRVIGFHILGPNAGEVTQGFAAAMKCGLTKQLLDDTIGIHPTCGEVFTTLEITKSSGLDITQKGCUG

Sequence of GNB4 (Q9HAV0 2-340 limits assumed): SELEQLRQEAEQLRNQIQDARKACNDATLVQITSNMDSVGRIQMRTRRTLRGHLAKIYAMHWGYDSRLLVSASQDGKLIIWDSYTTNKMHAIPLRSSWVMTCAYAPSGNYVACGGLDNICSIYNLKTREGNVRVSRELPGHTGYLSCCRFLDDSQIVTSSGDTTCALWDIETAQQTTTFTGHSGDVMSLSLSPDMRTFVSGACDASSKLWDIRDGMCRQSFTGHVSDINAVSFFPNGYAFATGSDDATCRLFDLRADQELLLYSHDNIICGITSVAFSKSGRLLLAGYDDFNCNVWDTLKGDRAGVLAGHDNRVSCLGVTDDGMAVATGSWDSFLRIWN
Sequence of GNB4 (P59768 2-68 partner limits assumed): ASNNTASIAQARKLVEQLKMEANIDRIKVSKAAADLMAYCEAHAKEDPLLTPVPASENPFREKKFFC
Sequence of TMA7 (Q9Y2S6 whole entry): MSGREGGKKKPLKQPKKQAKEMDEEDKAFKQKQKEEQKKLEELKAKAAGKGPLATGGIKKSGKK

SMILES | Kd (TMA7) [µM] | BI (TMA7; prey TMA7, MS7_Varjosalo) | Kd (UBE2N) [µM] | BI (UBE2N; prey UBE2N, MS4_Varjosalo) | Kd (GYPC) [µM] | BI (GYPC; prey GYPC, MS4_Varjosalo) | Kd (EHD4) [µM] | BI (EHD4; prey EHD4, MS4_Varjosalo) | Kd (GNB4) [µM] | BI (GNB4; prey GNB4, MS7_Varjosalo) | Kd (TXNL4B) [µM] | BI (TXNL4B; prey TXNL4B, MS7_Varjosalo) | log2FC (TXNL4B; prey TXNL4B, MS7_Varjosalo) | Kd (ASXL2) [µM] | BI (ASXL2; prey ASXL2, MS7_Varjosalo) | log2FC (ASXL2; prey ASXL2, MS7_Varjosalo) | Kd (TXNRD3) [µM] | BI (TXNRD3; prey TXNRD3, MS7_Varjosalo) | log2FC (TXNRD3; prey TXNRD3, MS7_Varjosalo)
CC(C)[C@H](NC(=O)[C@H](CCCCN)NC(=O)[C@H](Cc1ccccc1)NC(=O)[C@@H]1CCCN1C(=O)[C@H](CC(N)=O)NC(=O)[C@@H](NC(=O)[C@H](CCCNC(=N)N)NC(=O)CNC(=O)[C@H](CCC(N)=O)NC(=O)[C@H](CO)NC(=O)[C@@H](N)CO)C(C)C)C(=O)N[C@@H](CO)C(=O)N[C@@H](C)C(=O)N[C@@H](CO)C(=O)N[C@@H](CO)C(=O)N[C@@H](CCCCN)C(=O)N[C@@H](CCC(=O)O)C(=O)N1CCC[C@H]1C(=O)N[C@@H](C)C(N)=O [WDHD1 906-924] (H-SSQGRVNPFKVSASSKEPA-NH2) | 13.4 | 0.4275 | 20.8 | 0.3252 | 18.6 | 0.35 | 18.9 | 0.3455 | 12.7 | 0.4407 | – | – | – | – | – | – | – | – | –
CC[C@H](C)[C@H](NC(=O)[C@H](CC(N)=O)NC(=O)[C@@H](NC(=O)[C@H](CCC(N)=O)NC(=O)[C@@H]1CCCN1C(=O)[C@@H](NC(=O)[C@H](CCC(N)=O)NC(=O)[C@H](CCCNC(=N)N)NC(=O)CCCCCNC(=O)CCCC[C@@H]1SC[C@@H]2NC(=O)N[C@@H]21)[C@@H](C)O)C(C)C)C(=O)N[C@@H](CC(N)=O)C(=O)N1CCC[C@H]1C(=O)N[C@@H](Cc1ccccc1)C(=O)N[C@H](C(=O)N1CCC[C@H]1C(=O)N[C@@H](CC(=O)O)C(=O)N[C@@H](CO)C(=O)N[C@@H](CC(C)C)C(=O)N[C@@H](CC(C)C)C(=O)N[C@@H](CC(C)C)C(=O)N[C@@H](Cc1c[nH]cn1)C(=O)N[C@@H](CO)C(N)=O)[C@@H](C)O [WEE1] (HELM PEPTIDE1{[O=C1N[C@H]2[C@H](CS[C@H]2CCCCC(=O)[*:2])N1].[O=C(CCCCCN[*:1])[*:2]].R.Q.T.P.Q.V.N.I.N.P.F.T.P.D.S.L.L.L.H.S.[am]}$$$$V2.0) | – | – | – | – | – | – | – | – | – | – | 7.39 | 0.575 | -1.234 | 5.55 | 0.643 | -1.486 | 6.85 | 0.5933 | -1.298
